Results reported in paper PMC8961646, “Fibroblast Activation Protein Specific Optical Imaging in Non-Small Cell Lung Cancer” (Frontiers in Oncology, 2022).
Non-standard residues stand in square brackets, D forms with d. Residues, ends and D or L forms follow the SMILES beside them. *: point of attachment. 5FAM = O=C1OC2(c3ccc(O)cc3Oc3cc(O)ccc32)c2ccc(C(=O)*)cc21; MethylRed = CN(C)c1ccc(/N=N/c2ccccc2C(=O)*)cc1; AEEA = NCCOCCOCC(=O)O

How the values were obtained:
DPP-IV = settings: cited from earlier work
Source text: As starting point for our study, a peptide sequence previously published within a FAP optical reporter was synthesised (GPGPNQ), which had been determined to be FAP specific over DPP-IV but had not been assessed against PREP ([24]). We synthesised the reported peptide sequence but for FRET pairing we utilised a Carboxyfluorescein (FAM) fluorophore with a Methyl Red quencher ( Figure 1A ) as an alternative to Cy5.5/QSY21. The peptide sequence was synthesized by Fmoc solid-phase peptide synthesis on ChemMatrix resin using Oxyma/DIC as the coupling combination. FAM was incorporated at the N-termi ...

[1] = test system: NSCLC patient tissue samples; assay: Fluorescence intensity and lifetime imaging (FLIM) of ex vivo NSCLC tissue; parameters: species or system human; settings: Talabostat at a dilution of 1:1000 with FAP3 5 µM, N=5
Procedure: For imaging solutions, varying concentrations of rhFAP were prepared in blackened eppendorfs and FAP3 to a final concentration of 5µM added and imaged as below. For biological specimens, NSCLC patient tissue samples from surgical resection were used fresh or snap frozen and stored at -80°C until required. Small fragments (approx. 4mm^3) incubated at 37°C in a 96 well plate in phenyl-red free DMEM (Gibco) containing 10% FCS, 1% Penicillin-streptomycin and 1% L-Glutamine. For the tissue fragments to be used as inhibitor controls, we added Talabostat at a dilution of 1:1000. Samples were then imaged using a clinically approved fluorescence lifetime imaging system used in conjunction with an imaging fibre ([30]) providing a 400 x 400 µm field of view. The imaging system incorporates a pulsed supercontinuum laser source, in this case tuned for excitation at 488 nm, with an achromatic confocal laser scanning system and a time-resolved spectrometer. This spectrometer contains a 512 channel single photon avalanche diode (SPAD) sensor ([31]) allowing for the rapid collection of time resolved spectral fluorescence lifetime data. Fluorescence intensity and lifetime images were collected using an image resolution of 160 x 160 pixels over a 498 – 570 nm spectral range with an exposure time of 13 µs per pixel. This led to an imaging rate of ~3 frames per second.
For each condition, the tumour samples were imaged using a fibre placed at the surface of the tissue (baseline), and then again at 10-minute intervals following the additions of equimolar concentrations of probe +/- Inhibitor. For imaging solutions, the fibre was held within the solution and imaged every 5 minutes. Each condition and time-point data for both fluorescence intensity and lifetime were collected. Imaging sequences had non-relevant frames removed, and the entire field of view was analysed. Analysis was undertaken using a bespoke software suite utilising the rapid lifetime determination (RLD) method ([32]). […]

rhFAP = molecular target: T1, rhFAP (Homo sapiens, UniProt Q12884); assay: Probe cleavage by recombinant human FAP (fluorescence plate assay, MALDI confirmation); type: biochemical; settings: probe 5 µM; for FAP specificity (over PREP): rhFAP compared with rhPREP, each 0.1 µg/ml; for Cleavage by rhFAP (fluorescence signal): rhFAP 0.1 µg/ml, TRIS buffer (pH 7.5), 20 µl, read 480/530 nm, n=3 run in triplicate
T1 construct: purchased R&D Systems
T1 sequence (Q12884 26-760 limits assumed): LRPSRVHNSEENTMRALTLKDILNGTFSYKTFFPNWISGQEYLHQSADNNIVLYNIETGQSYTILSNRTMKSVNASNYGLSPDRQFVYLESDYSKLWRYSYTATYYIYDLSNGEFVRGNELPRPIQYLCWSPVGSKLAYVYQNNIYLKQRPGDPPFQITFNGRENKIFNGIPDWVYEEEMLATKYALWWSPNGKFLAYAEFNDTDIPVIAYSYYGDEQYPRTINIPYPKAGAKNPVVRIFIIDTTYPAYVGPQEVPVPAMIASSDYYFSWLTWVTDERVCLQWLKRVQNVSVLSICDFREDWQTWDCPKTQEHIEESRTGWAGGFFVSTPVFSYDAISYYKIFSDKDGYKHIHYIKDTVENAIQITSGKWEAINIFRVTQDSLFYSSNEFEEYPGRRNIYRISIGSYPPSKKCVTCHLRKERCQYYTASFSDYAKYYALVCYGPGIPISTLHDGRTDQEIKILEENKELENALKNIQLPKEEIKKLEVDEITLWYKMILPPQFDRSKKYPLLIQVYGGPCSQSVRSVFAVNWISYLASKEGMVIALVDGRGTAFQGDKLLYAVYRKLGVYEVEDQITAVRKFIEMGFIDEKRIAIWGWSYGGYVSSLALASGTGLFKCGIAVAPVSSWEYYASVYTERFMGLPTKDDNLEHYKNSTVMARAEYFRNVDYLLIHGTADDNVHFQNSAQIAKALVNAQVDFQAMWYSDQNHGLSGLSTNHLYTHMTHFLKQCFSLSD

rhDPPIV = rhDPPIV (Homo sapiens, UniProt P27487); assay: Probe cleavage by recombinant human DPP-IV (exopeptidase activity); settings: probe 5 µM, rhDPPIV 0.1 µg/ml, TRIS buffer pH 7.5, read 480/530 nm, n=3 run in triplicate
rhDPPIV, sequence (P27487 29-766 limits assumed): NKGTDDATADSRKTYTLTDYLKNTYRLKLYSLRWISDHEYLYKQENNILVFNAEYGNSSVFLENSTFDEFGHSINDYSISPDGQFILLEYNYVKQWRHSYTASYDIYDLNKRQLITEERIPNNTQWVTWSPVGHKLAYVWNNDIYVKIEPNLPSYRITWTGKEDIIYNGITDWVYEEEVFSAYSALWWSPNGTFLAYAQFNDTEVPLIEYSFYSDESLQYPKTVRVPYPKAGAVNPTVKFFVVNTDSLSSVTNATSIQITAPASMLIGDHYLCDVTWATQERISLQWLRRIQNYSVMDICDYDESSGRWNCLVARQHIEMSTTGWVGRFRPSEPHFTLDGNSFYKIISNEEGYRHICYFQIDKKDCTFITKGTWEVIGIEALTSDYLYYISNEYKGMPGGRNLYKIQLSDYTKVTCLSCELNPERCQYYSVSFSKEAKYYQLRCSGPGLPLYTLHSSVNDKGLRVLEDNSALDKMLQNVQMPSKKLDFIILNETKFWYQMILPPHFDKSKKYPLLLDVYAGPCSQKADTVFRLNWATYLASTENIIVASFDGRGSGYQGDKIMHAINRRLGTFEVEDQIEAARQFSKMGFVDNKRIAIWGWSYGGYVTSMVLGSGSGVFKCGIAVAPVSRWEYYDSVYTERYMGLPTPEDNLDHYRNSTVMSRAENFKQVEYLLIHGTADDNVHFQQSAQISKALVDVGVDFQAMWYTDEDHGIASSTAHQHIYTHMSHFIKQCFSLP
Procedure: Recombinant human enzymes [rhFAP (R&D Systems), rhPREP (R&D Systems) and rhDPPIV (Biolegend)] were stored in stocks at -70°C and diluted as required to be used at final concentration of 0.1 µg/ml. Enzymes were aliquoted upon receipt from the supplier and new stocks made from a fresh aliquot as required.
Assays were undertaken in triplicate in blackened 384 well plates on ice prior to spectral reads. […] All wells contained a final volume of 20 µl to include buffers, inhibitors (if used), substrates and recombinant human enzymes (at a concentration of 0.1 µg/ml unless otherwise stated). […] Plates were sealed with an optical plate sealer (Biolegend) and were read in a preheated spectrophotometer (Synergy Biotek) in monochromator-based mode at 380/460 nm for control substrates and 480/530 nm for synthesised FAP probes.

rhPREP = molecular target: T2, rhPREP (Homo sapiens, UniProt P48147); assay: Probe cleavage by recombinant human PREP (fluorescence plate assay, MALDI confirmation); type: biochemical; settings: probe 5 µM, rhPREP 0.1 µg/ml, TRIS buffer pH 7.5, read 480/530 nm, n=3 run in triplicate
T2 construct: purchased R&D Systems
T2 sequence (P48147 1-710): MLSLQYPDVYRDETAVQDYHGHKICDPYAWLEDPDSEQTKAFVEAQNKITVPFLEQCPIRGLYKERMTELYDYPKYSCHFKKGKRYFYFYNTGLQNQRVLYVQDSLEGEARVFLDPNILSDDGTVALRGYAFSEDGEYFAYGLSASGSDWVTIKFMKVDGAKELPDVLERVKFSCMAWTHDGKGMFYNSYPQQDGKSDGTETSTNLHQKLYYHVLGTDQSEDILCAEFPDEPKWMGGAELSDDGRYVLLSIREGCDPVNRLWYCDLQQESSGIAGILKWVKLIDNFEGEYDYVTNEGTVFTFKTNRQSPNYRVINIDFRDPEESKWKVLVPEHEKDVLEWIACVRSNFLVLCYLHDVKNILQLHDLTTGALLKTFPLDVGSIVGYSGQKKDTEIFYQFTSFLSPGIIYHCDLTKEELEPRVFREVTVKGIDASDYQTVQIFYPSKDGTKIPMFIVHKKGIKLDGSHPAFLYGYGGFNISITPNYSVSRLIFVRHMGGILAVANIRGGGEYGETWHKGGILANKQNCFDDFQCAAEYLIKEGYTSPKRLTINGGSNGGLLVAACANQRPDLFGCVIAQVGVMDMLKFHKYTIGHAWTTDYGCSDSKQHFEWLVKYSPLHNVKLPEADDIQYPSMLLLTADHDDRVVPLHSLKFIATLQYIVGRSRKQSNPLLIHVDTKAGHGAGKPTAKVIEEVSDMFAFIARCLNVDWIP

FAP expressing tumours = settings: murine tumour models, NIR fluorescence; cited from earlier work
Source text: Prior studies investigating FAP as an optical probe target focussed on near infrared (NIR) fluorophores where signal can be detected with minimal intrinsic tissue autofluorescence. Li et al. designed an activatable NIR fluorescent probe (ANPFAP) for FAP which was composed of the NIR dye Cy5.5 and the quencher dye QSY21 which were linked by a peptide sequence which is cleaved specifically by FAP (KGPGPNQC) ([24]). […] Although not developed as an imaging optical ...

Molecule | FAP specificity (over PREP) (rhFAP) | Cleavage by rhPREP (fluorescence signal) (rhPREP) | Cleavage by rhFAP (fluorescence signal) (rhFAP) | further results
CC(C)[C@H](N)C(=O)N1CCC[C@H]1B(O)O [Talabostat, Val-boroPro, reference compound] | – | – | – | IC50 (DPP-IV): 4 nM; Inhibition of FAP3 intensity and lifetime change in NSCLC tissue [1]: abrogated
CC(C)[C@H](NC(=O)[C@@H](N)CCCCNC(=O)c1ccccc1/N=N/c1ccc(N(C)C)cc1)C(=O)N[C@H](CO)C(=O)N1CCC[C@H]1C(=O)N[C@@H](CO)C(=O)N[C@@H](CCC(N)=O)C(=O)NCC(=O)N[C@@H](CCCCNC(=O)c1ccc2c(c1)C(=O)OC21c2ccc(O)cc2Oc2cc(O)ccc21)C(=O)NCCOCCOCC(=O)N[C@H](CCCCN)C(=O)NCCOCCOCC(=O)N[C@H](CCCCN)C(=O)NCCOCCOCC(=O)N[C@H](CCCCN)C(N)=O [FAP-sP, reference compound] (H-K(MethylRed)V[dS]PSQGK(5FAM)[AEEA][dK][AEEA][dK][AEEA][dK]-NH2) | demonstrated FAP specificity | no rhPREP cleavage | – | Cleavage by DPP-IV (exopeptidase activity, fluorescence signal) (rhDPPIV): no cleavage
KGPGPNQC [ANPFAP] | – | – | – | Signal in FAP expressing tumours (FAP expressing tumours): higher signal
C[C@H](NC(=O)[C@@H](N)CCCCNC(=O)c1ccccc1/N=N/c1ccc(N(C)C)cc1)C(=O)N1CCC[C@H]1C(=O)N[C@@H](CO)C(=O)N[C@@H](CCCCNC(=O)c1ccc2c(c1)C(=O)OC21c2ccc(O)cc2Oc2cc(O)ccc21)C(=O)NCCOCCOCC(=O)N[C@H](CCCCN)C(=O)NCCOCCOCC(=O)N[C@H](CCCCN)C(=O)NCCOCCOCC(=O)N[C@H](CCCCN)C(N)=O [FAP2AAla] (H-K(MethylRed)APSK(5FAM)[AEEA][dK][AEEA][dK][AEEA][dK]-NH2) | – | demonstrated cleavage by PREP | FAP activity was absent | –
CN(C)c1ccc(/N=N/c2ccccc2C(=O)NCCCC[C@H](N)C(=O)N[C@H](CO)C(=O)N2CCC[C@H]2C(=O)N[C@@H](CO)C(=O)N[C@@H](CCCCNC(=O)c2ccc3c(c2)C(=O)OC32c3ccc(O)cc3Oc3cc(O)ccc32)C(=O)NCCOCCOCC(=O)N[C@H](CCCCN)C(=O)NCCOCCOCC(=O)N[C@H](CCCCN)C(=O)NCCOCCOCC(=O)N[C@H](CCCCN)C(N)=O)cc1 [FAP2CD-Ser] (H-K(MethylRed)[dS]PSK(5FAM)[AEEA][dK][AEEA][dK][AEEA][dK]-NH2) | FAP specificity over PREP | without PREP cleavage | highest rate of cleavage | Cleavage by rhFAP (fluorescence signal) (rhFAP; listed as D-Ser): reduced signal
